Results reported in patent US20260248842A1, “METHOD FOR TRANSIENT ACIDIFICATION OF WOUNDS” (SePRO Corporation, priority 2023, published 2026).

Assay: Early studies: permeation and transient acidification of pig skin
Conditions: same amounts of ammonia equivalents and sulfuric acid in comparison solutions

## N.N.O=S(=O)(O)O [ammonium sulfate]
  permeation of pig skin and transient acidification: neither of the acidified ammonium salts solutions permeated pig skin
